According to the supplement of paper PMC10307832:

Assays:
Test in all cases: relative viability (nuclei count vs DMSO), 5 days (fraction); higher = more cells survive
Neratinib + Trametinib = compound: CCOc1cc2ncc(C#N)c(Nc3ccc(OCc4ccccn4)c(Cl)c3)c2cc1NC(=O)/C=C/CN(C)C [Neratinib] + CC(=O)Nc1cccc(-n2c(=O)n(C3CC3)c(=O)c3c(Nc4ccc(I)cc4F)n(C)c(=O)c(C)c32)c1 [Trametinib] (partner 0.02 µM)
How it was run: (§1)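 Values are medians from duplicate plates. Each reflects relative viability, defined as the nuclei count of treated wells over that of vehicle wells. Lung cancer cell lines in 1536-well plates were pin-tool dosed one day after seeding with one drug alone or with a fixed anchor-drug dose plus five library-drug doses (not always all listed) in √10 steps, then fixed, stained and imaged at 4× after 5 days.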

Neratinib + Bortezomib = compound: CCOc1cc2ncc(C#N)c(Nc3ccc(OCc4ccccn4)c(Cl)c3)c2cc1NC(=O)/C=C/CN(C)C [Neratinib] + CC(C)C[C@H](NC(=O)[C@H](Cc1ccccc1)NC(=O)c1cnccn1)B(O)O [Bortezomib] (partner 0.002 µM)
How it was run: as §1

Neratinib + Pictilisib = compound: CCOc1cc2ncc(C#N)c(Nc3ccc(OCc4ccccn4)c(Cl)c3)c2cc1NC(=O)/C=C/CN(C)C [Neratinib] + CS(=O)(=O)N1CCN(Cc2cc3nc(-c4cccc5[nH]ncc45)nc(N4CCOCC4)c3s2)CC1 [Pictilisib] (partner 1 µM)
How it was run: as §1

Neratinib + Olaparib = compound: CCOc1cc2ncc(C#N)c(Nc3ccc(OCc4ccccn4)c(Cl)c3)c2cc1NC(=O)/C=C/CN(C)C [Neratinib] + O=C(c1cc(Cc2n[nH]c(=O)c3ccccc23)ccc1F)N1CCN(C(=O)C2CC2)CC1 [Olaparib] (partner 8 µM)
How it was run: as §1

ChaGo-K-1
relative viability (Neratinib + Trametinib; first compound 0.01 µM): 0.886
relative viability (Neratinib + Trametinib; first compound 0.03162 µM): 0.941
relative viability (Neratinib + Trametinib; first compound 0.1 µM): 0.754
relative viability (Neratinib + Trametinib; first compound 0.3162 µM): 0.882
relative viability (Neratinib + Trametinib; first compound 1 µM): 0.845
relative viability (Neratinib + Bortezomib; first compound 0.01 µM): 1.06
relative viability (Neratinib + Bortezomib; first compound 0.03162 µM): 1.04
relative viability (Neratinib + Bortezomib; first compound 0.1 µM): 0.873
relative viability (Neratinib + Bortezomib; first compound 0.3162 µM): 0.745
relative viability (Neratinib + Bortezomib; first compound 1 µM): 0.912
relative viability (Neratinib + Pictilisib; first compound 0.01 µM): 0.668
relative viability (Neratinib + Pictilisib; first compound 0.03162 µM): 0.781
relative viability (Neratinib + Pictilisib; first compound 0.1 µM): 0.689
relative viability (Neratinib + Pictilisib; first compound 0.3162 µM): 0.639
relative viability (Neratinib + Pictilisib; first compound 1 µM): 0.614
relative viability (Neratinib + Olaparib; first compound 0.01 µM): 0.412
relative viability (Neratinib + Olaparib; first compound 0.03162 µM): 0.469
relative viability (Neratinib + Olaparib; first compound 0.1 µM): 0.331
relative viability (Neratinib + Olaparib; first compound 0.3162 µM): 0.392
relative viability (Neratinib + Olaparib; first compound 1 µM): 0.401

EBC-1
relative viability (Neratinib + Bortezomib; first compound 0.01 µM): 0.599
relative viability (Neratinib + Bortezomib; first compound 0.03162 µM): 0.569
relative viability (Neratinib + Bortezomib; first compound 0.1 µM): 0.541
relative viability (Neratinib + Bortezomib; first compound 0.3162 µM): 0.533
relative viability (Neratinib + Bortezomib; first compound 1 µM): 0.349
relative viability (Neratinib + Pictilisib; first compound 0.01 µM): 0.398
relative viability (Neratinib + Pictilisib; first compound 0.03162 µM): 0.408
relative viability (Neratinib + Pictilisib; first compound 0.1 µM): 0.378
relative viability (Neratinib + Pictilisib; first compound 0.3162 µM): 0.319
relative viability (Neratinib + Pictilisib; first compound 1 µM): 0.274
relative viability (Neratinib + Olaparib; first compound 0.01 µM): 0.774
relative viability (Neratinib + Olaparib; first compound 0.03162 µM): 0.668
relative viability (Neratinib + Olaparib; first compound 0.1 µM): 0.669
relative viability (Neratinib + Olaparib; first compound 0.3162 µM): 0.695
relative viability (Neratinib + Olaparib; first compound 1 µM): 0.544

EKVX
relative viability (Neratinib + Trametinib; first compound 0.01 µM): 0.353
relative viability (Neratinib + Trametinib; first compound 0.03162 µM): 0.334
relative viability (Neratinib + Trametinib; first compound 0.1 µM): 0.315
relative viability (Neratinib + Trametinib; first compound 0.3162 µM): 0.139
relative viability (Neratinib + Trametinib; first compound 1 µM): 0.162
relative viability (Neratinib + Bortezomib; first compound 0.01 µM): 1.02
relative viability (Neratinib + Bortezomib; first compound 0.03162 µM): 1.18
relative viability (Neratinib + Bortezomib; first compound 0.1 µM): 0.894
relative viability (Neratinib + Bortezomib; first compound 0.3162 µM): 0.271
relative viability (Neratinib + Bortezomib; first compound 1 µM): 0.184
relative viability (Neratinib + Pictilisib; first compound 0.01 µM): 0.476
relative viability (Neratinib + Pictilisib; first compound 0.03162 µM): 0.387
relative viability (Neratinib + Pictilisib; first compound 0.1 µM): 0.32
relative viability (Neratinib + Pictilisib; first compound 0.3162 µM): 0.163
relative viability (Neratinib + Pictilisib; first compound 1 µM): 0.129
relative viability (Neratinib + Olaparib; first compound 0.01 µM): 0.86
relative viability (Neratinib + Olaparib; first compound 0.1 µM): 0.624
relative viability (Neratinib + Olaparib; first compound 0.3162 µM): 0.341
relative viability (Neratinib + Olaparib; first compound 1 µM): 0.203

EMC-BAC-2
relative viability (Neratinib + Trametinib; first compound 0.01 µM): 0.949
relative viability (Neratinib + Trametinib; first compound 0.03162 µM): 0.885
relative viability (Neratinib + Trametinib; first compound 0.1 µM): 0.855
relative viability (Neratinib + Trametinib; first compound 0.3162 µM): 0.793
relative viability (Neratinib + Trametinib; first compound 1 µM): 0.671
relative viability (Neratinib + Bortezomib; first compound 0.01 µM): 1.25
relative viability (Neratinib + Bortezomib; first compound 0.03162 µM): 1.13
relative viability (Neratinib + Bortezomib; first compound 0.1 µM): 0.979
relative viability (Neratinib + Bortezomib; first compound 0.3162 µM): 0.99
relative viability (Neratinib + Bortezomib; first compound 1 µM): 0.889
relative viability (Neratinib + Pictilisib; first compound 0.01 µM): 0.584
relative viability (Neratinib + Pictilisib; first compound 0.03162 µM): 0.558
relative viability (Neratinib + Pictilisib; first compound 0.1 µM): 0.443
relative viability (Neratinib + Pictilisib; first compound 0.3162 µM): 0.468
relative viability (Neratinib + Pictilisib; first compound 1 µM): 0.371
relative viability (Neratinib + Olaparib; first compound 0.01 µM): 0.521
relative viability (Neratinib + Olaparib; first compound 0.03162 µM): 0.481
relative viability (Neratinib + Olaparib; first compound 0.1 µM): 0.501
relative viability (Neratinib + Olaparib; first compound 0.3162 µM): 0.528
relative viability (Neratinib + Olaparib; first compound 1 µM): 0.45

EPLC-272H
relative viability (Neratinib + Trametinib; first compound 0.01 µM): 0.278
relative viability (Neratinib + Trametinib; first compound 0.03162 µM): 0.321
relative viability (Neratinib + Trametinib; first compound 0.1 µM): 0.253
relative viability (Neratinib + Trametinib; first compound 0.3162 µM): 0.248
relative viability (Neratinib + Trametinib; first compound 1 µM): 0.22
relative viability (Neratinib + Bortezomib; first compound 0.01 µM): 0.841
relative viability (Neratinib + Bortezomib; first compound 0.03162 µM): 0.994
relative viability (Neratinib + Bortezomib; first compound 0.1 µM): 0.881
relative viability (Neratinib + Bortezomib; first compound 0.3162 µM): 0.775
relative viability (Neratinib + Bortezomib; first compound 1 µM): 0.65
relative viability (Neratinib + Pictilisib; first compound 0.01 µM): 0.376
relative viability (Neratinib + Pictilisib; first compound 0.03162 µM): 0.387
relative viability (Neratinib + Pictilisib; first compound 0.1 µM): 0.316
relative viability (Neratinib + Pictilisib; first compound 0.3162 µM): 0.338
relative viability (Neratinib + Pictilisib; first compound 1 µM): 0.307
relative viability (Neratinib + Olaparib; first compound 0.01 µM): 0.645
relative viability (Neratinib + Olaparib; first compound 0.03162 µM): 0.643
relative viability (Neratinib + Olaparib; first compound 0.1 µM): 0.558
relative viability (Neratinib + Olaparib; first compound 0.3162 µM): 0.512
relative viability (Neratinib + Olaparib; first compound 1 µM): 0.253

H3255
relative viability (Neratinib + Trametinib; first compound 0.01 µM): 0.619
relative viability (Neratinib + Trametinib; first compound 0.03162 µM): 0.602
relative viability (Neratinib + Trametinib; first compound 0.1 µM): 0.426
relative viability (Neratinib + Trametinib; first compound 0.3162 µM): 0.241
relative viability (Neratinib + Trametinib; first compound 1 µM): 0.236
relative viability (Neratinib + Bortezomib; first compound 0.01 µM): 0.776
relative viability (Neratinib + Bortezomib; first compound 0.03162 µM): 0.97
relative viability (Neratinib + Bortezomib; first compound 0.1 µM): 0.556
relative viability (Neratinib + Bortezomib; first compound 0.3162 µM): 0.225
relative viability (Neratinib + Bortezomib; first compound 1 µM): 0.233
relative viability (Neratinib + Pictilisib; first compound 0.01 µM): 0.453
relative viability (Neratinib + Pictilisib; first compound 0.03162 µM): 0.469
relative viability (Neratinib + Pictilisib; first compound 0.1 µM): 0.301
relative viability (Neratinib + Pictilisib; first compound 0.3162 µM): 0.117
relative viability (Neratinib + Pictilisib; first compound 1 µM): 0.109
relative viability (Neratinib + Olaparib; first compound 0.01 µM): 0.58
relative viability (Neratinib + Olaparib; first compound 0.03162 µM): 0.571
relative viability (Neratinib + Olaparib; first compound 0.1 µM): 0.463
relative viability (Neratinib + Olaparib; first compound 0.3162 µM): 0.264
relative viability (Neratinib + Olaparib; first compound 1 µM): 0.214

HARA
relative viability (Neratinib + Trametinib; first compound 0.01 µM): 0.545
relative viability (Neratinib + Trametinib; first compound 0.03162 µM): 0.786
relative viability (Neratinib + Trametinib; first compound 0.1 µM): 0.516
relative viability (Neratinib + Trametinib; first compound 1 µM): 0.303
relative viability (Neratinib + Bortezomib; first compound 0.01 µM): 1.26
relative viability (Neratinib + Bortezomib; first compound 0.03162 µM): 1.15
relative viability (Neratinib + Bortezomib; first compound 0.1 µM): 0.97
relative viability (Neratinib + Bortezomib; first compound 0.3162 µM): 0.974
relative viability (Neratinib + Bortezomib; first compound 1 µM): 0.79
relative viability (Neratinib + Pictilisib; first compound 0.01 µM): 0.494
relative viability (Neratinib + Pictilisib; first compound 0.03162 µM): 0.294
relative viability (Neratinib + Pictilisib; first compound 0.1 µM): 0.362
relative viability (Neratinib + Pictilisib; first compound 0.3162 µM): 0.262
relative viability (Neratinib + Pictilisib; first compound 1 µM): 0.336
relative viability (Neratinib + Olaparib; first compound 0.01 µM): 0.811
relative viability (Neratinib + Olaparib; first compound 0.1 µM): 0.778
relative viability (Neratinib + Olaparib; first compound 1 µM): 0.48

HCC-15
relative viability (Neratinib + Trametinib; first compound 0.01 µM): 0.329
relative viability (Neratinib + Trametinib; first compound 0.03162 µM): 0.402
relative viability (Neratinib + Trametinib; first compound 0.1 µM): 0.362
relative viability (Neratinib + Trametinib; first compound 0.3162 µM): 0.349
relative viability (Neratinib + Trametinib; first compound 1 µM): 0.325
relative viability (Neratinib + Bortezomib; first compound 0.01 µM): 0.948
relative viability (Neratinib + Bortezomib; first compound 0.03162 µM): 1.16
relative viability (Neratinib + Bortezomib; first compound 0.1 µM): 0.932
relative viability (Neratinib + Bortezomib; first compound 0.3162 µM): 0.956
relative viability (Neratinib + Bortezomib; first compound 1 µM): 0.882
relative viability (Neratinib + Pictilisib; first compound 0.01 µM): 0.824
relative viability (Neratinib + Pictilisib; first compound 0.03162 µM): 0.809
relative viability (Neratinib + Pictilisib; first compound 0.1 µM): 0.712
relative viability (Neratinib + Pictilisib; first compound 0.3162 µM): 0.781
relative viability (Neratinib + Pictilisib; first compound 1 µM): 0.618
relative viability (Neratinib + Olaparib; first compound 0.01 µM): 0.697
relative viability (Neratinib + Olaparib; first compound 0.03162 µM): 0.819
relative viability (Neratinib + Olaparib; first compound 0.1 µM): 0.673
relative viability (Neratinib + Olaparib; first compound 0.3162 µM): 0.667
relative viability (Neratinib + Olaparib; first compound 1 µM): 0.659

HCC-44
relative viability (Neratinib + Trametinib; first compound 0.01 µM): 1.14
relative viability (Neratinib + Trametinib; first compound 0.03162 µM): 1.08
relative viability (Neratinib + Trametinib; first compound 0.1 µM): 1.11
relative viability (Neratinib + Trametinib; first compound 0.3162 µM): 1.08
relative viability (Neratinib + Trametinib; first compound 1 µM): 1.09
relative viability (Neratinib + Bortezomib; first compound 0.01 µM): 0.997
relative viability (Neratinib + Bortezomib; first compound 0.03162 µM): 0.954
relative viability (Neratinib + Bortezomib; first compound 0.1 µM): 0.78
relative viability (Neratinib + Bortezomib; first compound 0.3162 µM): 0.931
relative viability (Neratinib + Bortezomib; first compound 1 µM): 0.952
relative viability (Neratinib + Pictilisib; first compound 0.01 µM): 0.852
relative viability (Neratinib + Pictilisib; first compound 0.03162 µM): 0.561
relative viability (Neratinib + Pictilisib; first compound 0.1 µM): 0.655
relative viability (Neratinib + Pictilisib; first compound 0.3162 µM): 0.642
relative viability (Neratinib + Pictilisib; first compound 1 µM): 0.643
relative viability (Neratinib + Olaparib; first compound 0.01 µM): 1.04
relative viability (Neratinib + Olaparib; first compound 0.03162 µM): 1.03
relative viability (Neratinib + Olaparib; first compound 0.1 µM): 0.899
relative viability (Neratinib + Olaparib; first compound 0.3162 µM): 0.94
relative viability (Neratinib + Olaparib; first compound 1 µM): 0.979
